“And” between values parts separate entries of the source, which are not always exact repeats. Identical values can stand only once. “Also recorded” adds a separate entry of the source. Like-named read-outs stand apart in the source and are kept apart here.
Columns and labels:
[1] = EQCM amine adsorption on iron in passivating borate buffer (pH 8.4); details: 15 mM amine
Source text: (§1) All the test solutions were buffered so that the effect of pH variation can be eliminated as much as possible. Thus, amine inhibition effectiveness is directly related to the strength of adsorption of the amine and its molecular structure, independent of pH effects. Here, borate buffer (pH 8.4) was used as passivating environment, whereas phosphate buffer (pH 5.7) was used as corrosive environment.
(§2) Plating of iron deposit (1 u thick) onto the polished gold crystal of the QCM electrode was accomplished from a 200 ml aqueous solution with the following composition:
(§3) For adsorption studies, the deposit was immersed in a passivating buffered solution (borate, pH 8.4, prepared as cited above) for 40 rain. for equilibration, after which 15 mM amine was added to the solution. The variation in frequency upon addition of the amine is quantitatively proportional to the amine adsorbed on the surface of the metal (Sauerbrey equation).
(§4) Deaerated test solutions (no dissolved O2) are prepared by purging the test solutions with argon for 2 hours before the tests and also during the tests.

[2] = EQCM aniline adsorption on nickel in borate buffer (pH 8.4); details: borate buffer pH 8.4, aerated
Procedure: (§5) Plating of black nickel deposit (1 u thick) onto the polished gold crystal of the QCM electrode was accomplished from a 200 ml aqueous solution with the following composition:
as §3

[3] = EQCM aniline inhibition of nickel corrosion in phosphate buffer (pH 5.7); details: phosphate buffer pH 5.7, aerated
Procedure: as §5
(§6) For the corrosion inhibition studies, the deposit was immersed in a corrosive buffer solution (phosphate, pH 5.7) for 40 min. for equilibration, and then 15 mM amine was added to the solution.

[4] = EQCM amine inhibition of iron corrosion in corrosive phosphate buffer (pH 5.7); details: 15 mM amine
Source text: as §1, §2, §6, §4

[5] = cited from earlier work
[6] = Quartz crystal microbalance weight loss of amine-treated iron surface in unstirred 0.5 M sodium sulfate solution; details: "open" pH 5.9 sulfate solution
[7] = as above; details: for percent wt. loss: amine-treated iron surface, 6.5 hours in unstirred 0.5 M Na2SO4 (pH=5.8); for time when wt. loss commenced: unstirred 0.5 M Na2SO4 (pH=5.8), 6.5 hours
Procedure: Weightloss measurements were performed by immersing the amine-coated iron surface in 0.5 M sodium sulfate solution (pH=5.8), and comparing the results observed with those obtained in case of an unprotected iron surface. From the results achieved, the following four major conclusions follow:
Table I below correlates the pKa of an amine with the percentage weight loss observed (using the quartz crystal microbalance technique) when the amine-treated iron surface was immersed for 6.5 hours in 0.5 M Na2SO4 solution (pH=5.8). See pKa prediction of organic acids and bases, D. D. Perrin, B. Dempsey, E. P. Serjeant (1981), Chapman and Hall. Physical methods in Heterocyclic Chemistry Vol. 1, A. A. Katritzky (1963), Academic Press.

[8] = Weight loss of AISI 1018 steel coupons exposed to amine containing steam at 250° F.; details: 250° F. steam, compared to plain steam
[9] = FTIR phase identification of iron oxides on steel samples exposed to amine containing steam; details: for hematite in samples exposed for four hours (FTIR): four hours exposure; for exposure time at which hematite formation was observed (FTIR): steam with 3 ppm DBU or 5 ppm morpholine
Source text: The main purpose of this analysis was to observe the relative delay in magnetite transformation to hematite.
Amorphous crystals will produce a variation in peak width, and a slight shift on IR values (Cornell R., and Schwertmann U., 1996). […] Oxyhydroxides absorption hands are as follows: α-FeOOH is known to have a deep well defined pair of sharp peaks at 890 and 795 cm^−1, γ-FeOOH presents an enunciated and deep peak at 1018 cm^−1. β-FeOOH was not expected to be present in the experiment conditions.
FIGS. 42 and 43 show the FTIR spectra of iron oxides formed on steel samples exposed to steam containing 3 ppm of DBU.
FIGS. 46 and 47 show the FTIR spectra of iron oxides formed on steel samples exposed to steam containing 3 ppm of DMA.

[10] = QCM weight loss of amine-treated iron deposit in "open" pH 2.6 sulfate solution
[11] = QCM weight loss of DBU-treated iron deposit in Ar-purged pH 2.6 sulfate solution; details: no dissolved oxygen, pH 2.6 sodium sulfate solution
Procedure: This conclusion was arrived at by examining the effect of DBU on the corrosion of iron in Ar-purged (no dissolved oxygen) pH 2.6 (acidic) sodium sulfate solution using the QCM technique, and comparing the results obtained with those recorded in “open” (oxygen containing) pH 2.6 and 5.9 solutions.
The apparatus for the experiments performed under purged conditions (as illustrated in FIG. 6) consists of a 500 ml Pyrex reaction vessel with a 4-necked cover. The reaction vessel and the cover are retained intact together during the experiment with the aid of a horse-shoe clamp. The QCM is inserted through the central neck, after plating the iron deposit onto the crystal. A pH electrode is inserted through one of the necks, and an inlet for Ar gas through the other. The fourth neck is stoppered when not used. The pH 2.6 sulfate solution is purged with Ar gas for 1 hour before exposure of the iron deposit (protected/unprotected) to the environment. See D. D. Perrin, B. Dempsey, E. P. Serjeant, pKa prediction of organic acids and bases, Chapman and Hall, 1981. A. A. Katritzky, Physical methods in Heterocyclic Chemistry Vol. 1, Academic Press, 1963. […]
The DBU-treated iron deposit was immersed in the Ar-purged pH 2.6 solution, and the weightloss and corresponding pH measurements recorded are plotted in FIGS. 7A and 7B. […]

[12] = borate buffer pH 8.4, deaerated
[13] = phosphate buffer pH 5.7, aerated
[14] = phosphate buffer pH 5.7, deaerated

SMILES	adsorption on iron surface ([1]; borate buffer pH 8.4, aerated)	adsorption on iron surface [1, 12]	inhibition of iron corrosion [4, 13]	% wt. loss in pH 5.9 solution [6] [%]	percent wt. loss [7] [%]	time when wt. loss commenced [7]	weight loss / corrosion rate of steel coupons in steam [8]	hematite in samples exposed for four hours (FTIR) [9]	effectiveness as corrosion inhibitor in acidic solution ([10]; "open" pH 2.6 solution)	% wt. loss in pH 2.6 solution ([10]; "open" pH 2.6 sulfate solution) [%]	also measured
Nc1ccccc1 [aniline]	does not have any adsorption	no	no effect on inhibition								adsorption on iron surface ([1]; borate buffer pH 8.4, aerated, listed as Aniline): no; adsorption on nickel surface [2]: adsorption; inhibition of nickel corrosion [3]: inhibition
NCCCCCO [5-amino-1-pentanol]				4.106	4.106	90 min					pKa ([5]; Table II, 23° C.): 10.46 (23° C.)
CNC [dimethylamine]				0.793	0.793	30 min	oxidation rates less favorable	no hematite was detected	not effective inhibitors	98.4	
C1CCNCC1 [piperidine]				0.57	0.57	350 min			good corrosion inhibitors	10.9	
CCCCNCCCC [N,N-dibutylamine]				9.3	9.3	161 minutes, expt.					pKa at 25° C. ([5]; Table I and text): 11.25; pKa at 25° C. ([5]; Table II): 11.25; adsorption on iron surface ([1]; borate buffer pH 8.4, aerated, listed as DBA): adsorbs on iron surface; also recorded: adsorption; adsorption on iron surface ([1]; borate buffer pH 8.4, deaerated, listed as DBA): still can adsorb on the iron surface; also recorded: adsorption; inhibition of iron corrosion ([4]; phosphate buffer pH 5.7, aerated, listed as DBA): oxide growth is noted after its adsorption; also recorded: inhibition; inhibition of iron corrosion ([4]; phosphate buffer pH 5.7, deaerated, listed as DBA): none of them can stop the iron corrosion; also recorded: no effect
CC(C)NC(C)C [diisopropylamine]				0		no wt. loss			not effective inhibitors	99.23	percent wt. loss ([7]; listed as diisoproplyamine): 0%
C1CCC2=NCCCN2CC1 [DBU, 1,8-diazabicyclo[5.4.0]undec-7-ene]	forms a monolayer initially and then multilayers; also recorded: Adsorption	still can adsorb on the iron surface; also recorded: adsorption	stops corrosion; also recorded: inhibition	0	0	no wt. loss	lowest corrosion rate	no hematite was detected	good corrosion inhibitors	7.2	exposure time at which hematite formation was observed (FTIR) [9]: 12 h; weightloss in Ar-purged pH 2.6 solution [11]: extensive weightless; inhibition of iron corrosion [4, 14]: none of them can stop the iron corrosion; also recorded: no effect
C1COCCN1 [morpholine]	only weak adsorption; also recorded: little	still can adsorb on the iron surface; also recorded: little	slow and weak	8.87	8.87	110 min	oxidation rates less favorable	some hematite presence			exposure time at which hematite formation was observed (FTIR) [9]: started after two hours of exposure; inhibition of iron corrosion [4, 14]: none of them can stop the iron corrosion
COCCCN [3-methoxypropylamine]				0	0	no wt. loss			not effective inhibitors		% wt. loss in pH 2.6 solution ([10]; "open" pH 2.6 solution, over 60 minutes, probe failed after 60 minutes): 11.19% and 11.19 (probe failed %
